Laboratory results: patent US4450269A, “Mono-5-substituted-3-chloro-4H-1,2,6-thiadiazin-4-one antifungal agents” (FMC Corporation, priority 1980, dated 1984)

Assays:
[1] = system: Cladosporium cucumerinum; assay: Spore germination test; assay type: cell-based; conditions: CC, 48 hours
Summary of the method: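 Compound in acetone mixed into water agar at 40, 10, 2.5 and 1 ppm; plates seeded with spore suspension and incubated 48 hours at 24 °C. Percentage germinated spores counted and converted into a germination rating.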

[2] = system: Pyricularia oryzae; assay: whole plant or invertebrate; assay type: in vivo; conditions: Pyricularia oryzae, foliar, 24 h, read-out: Percent Disease Control, curative, rice blast, 150 ppm, 24 hours after inoculation
[3] = system: Cladosporium cucumerinum; assay: Mycelial growth test; assay type: cell-based; conditions: Cladosporium cucumerinum, CC, read-out: Percent Fungus Growth Inhibition; for inhibition at 5 ppm / inhibition at 10 ppm / inhibition at 40 ppm: 72 h; for inhibition at 20 ppm: CC20, 72 h
Description: |CC = Cladosporium cucumerinum

[4] = system: Erysiphe polygoni; assay: whole plant or invertebrate; conditions: foliar, 24 h, read-out: Percent Disease Control, curative, bean powdery mildew

| SMILES | Spore Germination Rating ([1]; 1.0 ppm) | Spore Germination Rating ([1]; 2.5 ppm) | Spore Germination Rating ([1]; 10 ppm) | Spore Germination Rating ([1]; 40 ppm) | pest or weed control at 150 ppm [2] [%] | inhibition at 5 ppm [3] [%] | inhibition at 10 ppm [3] [%] | inhibition at 40 ppm [3] [%] | inhibition at 20 ppm [3] [%] | pest or weed control at 150 ppm [4] [%] |
| --- | --- | --- | --- | --- | --- | --- | --- | --- | --- | --- |
| CSc1ccc(Oc2nsnc(Cl)c2=O)cc1 [Compound 39, 3-chloro-5-[(4-methylthio)phenoxy]-4H-1,2,6,-thiadiazin-4-one] | 1 (10-40) | 0 (0-10) | 0 (0-10) | 0 (0-10) | 0 | 16 | 16 | 32 | 23 | 0 |
| C[S+]([O-])c1ccc(Oc2nsnc(Cl)c2=O)cc1 (stereo not shown) [Compound 40, 3-chloro-5-[(4-methylsulfinyl)phenoxy]-4H-1,2,6,-thiadiazin-4-one] | 4 (80-100) | 0 (0-10) | 0 (0-10) | 0 (0-10) | 0 | 0 | 48 | 48 | 32 | 0 |
| CS(=O)(=O)c1ccc(Oc2nsnc(Cl)c2=O)cc1 [Compound 41, 3-chloro-5-[(4-methylsulfonyl)phenoxy]-4H--1,2,6-thiadiazin-4-one] | 0 (0-10) | 0 (0-10) | 0 (0-10) | 0 (0-10) | 0 | 10 | 32 | 65 | 48 | 0 |
| CC(=O)Nc1cccc(Oc2nsnc(Cl)c2=O)c1 [Compound 42, 3-[(3-N--acetylamino)-phenoxy]-5-chloro-4H--1,2,6-thiadiazin-4-one] | 4 (80-100) | 4 (80-100) | 3 (60-80) | 0 (0-10) | 0 | 14 | 22 | 18 | 14 | 0 |
| CC(=O)Nc1ccccc1Oc1nsnc(Cl)c1=O [Compound 43, 3-[(2-acetylamino)-phenoxy]-5-chloro-4H--1,2,6-thiadiazin-4-one] | 4 (80-100) | 4 (80-100) | 2 (40-60) | 0 (0-10) | 0 | 0 | 0 | 17 | 6 | 0 |
| O=c1c(Cl)nsnc1Oc1cccc(C(F)(F)F)c1 [Compound 44, 3-chloro-5-[(3-trifluoromethyl)phenoxy]-4H--1,2,6-thiadiazin-4-one] | 1 (10-40) | 0 (0-10) | 0 (0-10) | 0 (0-10) | 0 | 36 | 56 | 100 | 92 | 100 |
| O=C(O)Cc1ccccc1Oc1nsnc(Cl)c1=O [Compound 45, 3-(2-carboxymethylphenoxy)-5-chloro-4H--1,2,6-thiadiazin-4-one] | 4 (80-100) | 4 (80-100) | 2 (40-60) | 0 (0-10) | 0 | 0 | 0 | 0 | 12 | 0 |
| N#CCc1ccc(Oc2nsnc(Cl)c2=O)cc1 [Compound 46, 3-chloro-5-[(4-cyanomethyl)-phenoxy]4H--1,2,6-thiadiazin-4-one] | 4 (80-100) | 0 (0-10) | 0 (0-10) | 0 (0-10) | 0 | 0 | 0 | 100 | 46 | 0 |
| CC(=O)c1ccc(Oc2nsnc(Cl)c2=O)cc1 [Compound 47, 3-(4-acetylphenoxy)-5-chloro-4H--1,2,6-thiadiazin-4-one] | 0 (0-10) | 0 (0-10) | 0 (0-10) | 0 (0-10) | 90 | 27 | 38 | 77 | 46 | 0 |
| CC(=O)c1cccc(Oc2nsnc(Cl)c2=O)c1 [Compound 48, 3-(3-acetylphenoxy)-5-chloro-4H--1,2,6-thiadiazin-4-one] | 0 (0-10) | 0 (0-10) | 0 (0-10) | 0 (0-10) | 50 | 29 | 33 | 100 | 50 | 0 |
| CC(=O)c1ccccc1Oc1nsnc(Cl)c1=O [Compound 49, 3-(2-acetylphenoxy)-5-chloro-4H--1,2,6-thiadiazin-4-one] | 0 (0-10) | 0 (0-10) | 0 (0-10) | 0 (0-10) | 0 | 3 | 17 | 64 | 33 | 0 |
| O=C(O)c1ccc(Oc2nsnc(Cl)c2=O)cc1 [Compound 50, 3-(4-carboxyphenoxy)-5-chloro-4H--1,2,6-thiadiazin-4-one] | 3 (60-80) | 3 (60-80) | 3 (60-80) | 2 (40-60) | 90 | 58 | 54 | 100 | 73 | 0 |
| COc1ccc(Cl)c(Oc2nsnc(Cl)c2=O)c1 [Compound 51, 3-chloro-5-[(2-chloro-5-methoxy)phenoxy]-4H--1,2,6-thiadiazin-4-one] | 3 (60-80) | 0 (0-10) | 0 (0-10) | 0 (0-10) | 0 | 8 | 26 | 100 | 85 | 0 |
| O=c1c(Cl)nsnc1Oc1ccc([N+](=O)[O-])cc1Cl [Compound 53, 3-chloro-5-(2-chloro-4-nitrophenoxy)-4H--1,2,6-thiadiazin-4-one] | 0 (0-10) | 0 (0-10) | 0 (0-10) | 0 (0-10) | 0 | 45 | 61 | 65 | 71 | 0 |
| Cc1cc(Oc2nsnc(Cl)c2=O)ccc1Cl [Compound 54, 3-chloro-5-(4-chloro-3-methylphenoxy)-4H--1,2,6-thiadiazin-4-one] | 2 (40-60) | 0 (0-10) | 0 (0-10) | 0 (0-10) | 0 | 14 | 28 | 50 | 33 | 0 |
| Cc1cc(Cl)ccc1Oc1nsnc(Cl)c1=O [Compound 55, 3-chloro-5-(4-chloro-2-methylphenoxy)-4H--1,2,6-thiadiazin-4-one] | 2 (40-60) | 1 (10-40) | 0 (0-10) | 0 (0-10) | 50 | 0 | 11 | 28 | 22 | 50 |
| Cc1ccc(Cl)c(Oc2nsnc(Cl)c2=O)c1 [Compound 56, 3-chloro-5-[(2-chloro-5-methyl)phenoxy]-4H--1,2,6-thiadiazin-4-one] | 4 (80-100) | 0 (0-10) | 0 (0-10) | 0 (0-10) | 0 | 26 | 38 | 100 | 100 | 0 |
| Cc1ccc(Oc2nsnc(Cl)c2=O)c(Br)c1 [Compound 57, 3-[(2-bromo-4-methyl)-phenoxy]-5-chloro-4H--1,2,6-thiadiazin-4-one] | 3 (60-80) | 0 (0-10) | 0 (0-10) | 0 (0-10) | 0 | 42 | 56 | 78 | 78 | 100 |
| Cc1cc(Cl)c(Oc2nsnc(Cl)c2=O)cc1C [Compound 58, 3-chloro-5-[(2-chloro-4,5-dimethyl)phenoxy]-4H--1,2,6-thiadiazin-4-one] | 3 (60-80) | 0 (0-10) | 0 (0-10) | 0 (0-10) | 0 | 44 | 44 | 61 | 42 | 50 |
